Results: patent publication US5461036A, “Spicamycin derivatives and their use as anticancer agents” (priority 1991, dated 1995)
Like-named read-outs stand apart in the source and are kept apart here.

Assays:
[1] = test system: L1210 mouse leukemia; conditions: in vivo; cited from earlier work
[2] = test system: Walker 256 rat sarcoma; conditions: in vivo; cited from earlier work
[3] = test system: human colon cancer (COL-1); format: in vivo, mouse
Protocol: (2) Method for measuring the antitumor effect on human colon cancer (COL-1)
COL-1, a human colon cancer, was transplanted subcutaneously into nude mice. When the tumor had grown to a volume of about 100 mm^3, the nude mice were divided into groups of 5 animals so that the average tumor volumes of respective groups were equalized. The respective spicamycin derivatives were administered to test groups at their MTDs, while physiological saline (solvent) containing 1% DMSO and 1% Cremophor EL® was administered to the control group. […] RV is expressed as RV =Vn/Vo where Vn is the tumor volume on day n and Vo is the initial tumor volume at the time treatment was commenced.

[4] = Acute toxicity (LD50); conditions: mouse, in vivo; intravenous, ICR mice (female, 6 weeks old), 14 days observation, Litchfield and Wilcoxon
Description: The LD50 was obtained from the mortalities at the respective dosage groups by the Litchfield and Wilcoxon's method.

[5] = test system: nude mice; assay: in vivo; parameters: species or system nude mice (BALB/c nu/nu); conditions: intravenous, continuous 5 days, maximum dose at which no animal was dead within 2 weeks, 20160 min
Protocol: (§1) (1) Measurement of maximum tolerated dose (MTD) of the spicamycin derivatives in nude mice
(§2) The spicamycin derivative was dissolved in dimethylsulfoxide (DMSO) and Cremophor EL® at the same volume as DMSO was added. Physiological saline was added so that the concentration of DMSO and Cremophor EL® was finally adjusted to 1%, respectively, and thus injection liquids of spicamycin derivative in a variety of concentrations were prepared. […] The maximum dose at which no animal was dead was defined as the MTD of the respective derivatives.

[6] = in vivo; parameters: species or system nude mice (BALB/c nu/nu); conditions: mouse, in vivo; intravenous, continuous 5 days, nude mice; maximum dose at which no animal was dead within 2 weeks; read-out: Maximum tolerated dose
Protocol: as §1, §2

CC(C)CCCCCCCCCCCCC(=O)NCC(=O)NC1C(O)C(O)C(Nc2ncnc3nc[nH]c23)OC1C(O)CO (stereo not shown) [septacidin]
antitumor activity against L1210 mouse leukemia [1]: no antitumor activity | antitumor activity against Walker 256 rat sarcoma [2]: no antitumor activity

CCCCCCCCC/C=C/C=C/C(=O)NCC(=O)N[C@@H]1[C@@H](O)[C@@H](O)[C@@H](Nc2ncnc3[nH]cnc23)O[C@H]1C(O)CO (stereo partly drawn) [SPK241, 6-[4'-N-(N'-trans,trans-2,4-tetradecadienoylglycyl)spicaminyl-amino]purine]
Therapeutic index ([3]; /minimum effective dose (effective: TGIR≥50)): 16 | TGIR (tumor growth inhibition rate, maximum) ([3]; in vivo, sc): 97 | minTx (relative tumor volume when reduced to the minimum) ([3]; in vivo, sc): 0.14 | LD50 at 336 h [4]: 110 mg/kg | Maximum tolerated dose [5]: 6 mg/kg/day

CCCCCCCCCCC/C=C/C(=O)NCC(=O)N[C@@H]1[C@@H](O)[C@@H](O)[C@@H](Nc2ncnc3[nH]cnc23)O[C@H]1C(O)CO (stereo partly drawn) [SPK156, 6-[4'-N-(N'-trans-2-tetradecenoylglycyl)spicaminyl-amino]purine]
TGIR (tumor growth inhibition rate, maximum) ([3]; COL-1 s.c. in nude mice, at MTD, TGIR=(1-Tx/Cx)×100, maximum during about 3 weeks): 92 | Therapeutic index ([3]; mouse, in vivo): 4 | MTD at 336 h [6]: 3 mg/kg/day
